Source: patent US12492210B2, “Tricyclic compounds and their use” (HUTCHISON MEDIPHARMA LIMITED, priority 2019, dated 2025)

Experiments:
MAPK1(ERK2) enzyme = molecular target: T1, MAPK1(ERK2) enzyme (Homo sapiens, UniProt P28482); assay: Z-Lyte Kinase Assay of ERK2; type: biochemical; conditions: read-out: Example 18 IC50
T1 construct: purchased Invitrogen PV3313
Outline: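 FRET-based Z-LYTE assay using ERK2 kinase with Ser/Thr3 peptide; compound tested at 0.00046–1 μM final in 2% DMSO. Kinase reaction ran 1 h at 25-30° C, followed by 1 h development. The coumarin/fluorescein emission ratio (445/520 nm) gave % phosphorylation, and IC50 was fitted from inhibition relative to uninhibited control.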

[1] = system: p-RSK (Thr359) in colo205 cells; assay: p-RSK (Thr359) Acumen Assay in Colo205; type: cell-based; conditions: Homo sapiens, COLO 205, 1 hour compound incubation, read-out: Example 19 IC50
Outline: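 Colo205 cells (4000/well, seeded overnight in 10% FBS) were exposed 1 hour at 37° C to compound added from a 3–0.001 μM dilution series in 5% DMSO. Cells were then fixed, permeabilised and immunostained for p-RSK Thr359, with PI counterstain. Acumen cytometry gave the percentage of positive cells, normalised to untreated wells and 3 uM GDC0994 wells, for the IC50 fit.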

T1 sequence (P28482 whole entry): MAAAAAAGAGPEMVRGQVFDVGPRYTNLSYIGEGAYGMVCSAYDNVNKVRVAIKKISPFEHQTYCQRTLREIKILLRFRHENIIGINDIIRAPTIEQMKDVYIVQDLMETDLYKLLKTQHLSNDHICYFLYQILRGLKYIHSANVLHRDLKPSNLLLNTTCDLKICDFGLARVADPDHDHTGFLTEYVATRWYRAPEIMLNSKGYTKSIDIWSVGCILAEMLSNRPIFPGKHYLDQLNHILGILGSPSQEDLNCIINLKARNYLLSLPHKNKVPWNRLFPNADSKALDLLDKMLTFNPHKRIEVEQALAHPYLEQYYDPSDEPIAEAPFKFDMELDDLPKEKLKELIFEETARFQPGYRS

SMILES | IC50 (MAPK1(ERK2) enzyme) | IC50 [1]
Cc1cnc(Nc2ccnn2C)cc1-c1cc2n(c1)CCn1c-2nnc1C(F)(F)c1ccccc1F [Compound 68] | 5 to 10 nM | > 100 nM
Cc1cnc(Nc2ccnn2C)nc1-c1cc2n(c1)C[C@H](C(F)F)n1c-2nnc1C(F)(F)c1ccccc1F [Compound 186] | 5 to 10 nM | ≤ 100 nM
COC[C@H]1Cn2cc(-c3nc(Nc4ccnn4C)ncc3C)cc2-c2nnc(C(F)(F)c3ccccc3Cl)n21 [Compound 202] | 5 to 10 nM | ≤ 100 nM
CO[C@H]1Cn2cc(-c3cc(Nc4ccnn4C)ncc3Cl)cc2-c2nnc(C3(C(C)(F)F)CCC3)n2C1 [Compound 155] | 5 to 10 nM | ≤ 100 nM
Cn1nccc1Nc1cc(-c2cc3n(c2)C[C@H](CF)n2c-3nnc2C2(C(C)(F)F)CCC2)c(Cl)cn1 [Compound 116] | 5 to 10 nM | > 100 nM
Cc1cnc(Nc2ccnn2C)cc1-c1cc2n(c1)C[C@H](C)n1c-2nnc1C(F)(F)c1ccccc1F [Compound 83] | > 10 nM | ≤ 100 nM
Cc1cnc(Nc2ccnn2C)nc1-c1cc2n(c1)C[C@H](CF)n1c-2nnc1C(F)(F)c1ccccc1Cl [Compound 176] | 5 to 10 nM | ≤ 100 nM
Cn1nccc1Nc1nccc(-c2cc3c4nnc(Cc5cccc(F)c5)n4ccn3c2)n1 [Compound 282] | ≤ 5 nM | > 100 nM
Cc1cnc(Nc2ccnn2C)cc1-c1cc2n(c1)CC1(Cn3c-2nnc3C(F)(F)C(F)F)CC(F)(F)C1 [Compound 168] | 5 to 10 nM | > 100 nM
COC[C@H]1Cn2cc(-c3nc(Nc4ccnn4C)ncc3C)nc2-c2nnc(C(F)(F)c3ccccc3F)n21 [Compound 223] | ≤ 5 nM | ≤ 100 nM
Cc1cnc(Nc2ccnn2C)nc1-c1cn2c(n1)-c1nnc(C(F)(F)c3ccccc3Cl)n1[C@H](C)C2 [Compound 221] | ≤ 5 nM | ≤ 100 nM
Cc1cnc(Nc2ccnn2C)cc1-c1cc2n(c1)CC(C)Cn1c-2nnc1C(F)(F)C(F)F (stereo not drawn) [Compound 60] | ≤ 5 nM | ≤ 100 nM
CC1CCn2c(nnc2C2(C(F)(F)F)CCC2)-c2cc(-c3cc(Nc4ccnn4C)ncc3Cl)cn21 (stereo not drawn) [Compound 52] | ≤ 5 nM | ≤ 100 nM
Cn1nccc1Nc1nccc(-c2cc3n(c2)CCCn2c(Cc4ccccc4Cl)nnc2-3)n1 [Compound 8] | ≤ 5 nM | > 100 nM
Cc1cnc(Nc2ccnn2C)cc1-c1cc2n(c1)C[C@H](CF)n1c-2nnc1C(F)(F)n1ccc(Cl)n1 [Compound 152] | ≤ 5 nM | ≤ 100 nM

Second part, the molecule after the results:

IC50 (MAPK1(ERK2) enzyme) | IC50 [1] | SMILES
≤ 5 nM | ≤ 100 nM | Cn1nccc1Nc1cc(-c2cc3n(c2)C[C@H](CF)n2c-3nnc2C(F)(F)c2ncccc2Cl)c(Cl)cn1 [Compound 207]
≤ 5 nM | ≤ 100 nM | Cc1cnc(Nc2ccnn2C)cc1-c1cc2n(c1)C[C@H](CF)n1c-2nnc1C1(C(F)(F)F)CCC1 [Compound 82]
≤ 5 nM | ≤ 100 nM | Cc1cnc(Nc2ccnn2C)nc1-c1cc2c3nnc(C4(C(F)(F)F)CCC4)n3ccn2c1 [Compound 231]
≤ 5 nM | ≤ 100 nM | CO[C@@H]1Cn2cc(-c3cc(Nc4ccnn4C)ncc3Cl)cc2-c2nnc(C3(C(F)(F)F)CCC3)n2C1 [Compound 302]
≤ 5 nM | ≤ 100 nM | Cn1nccc1Nc1cc(-c2cc3n(c2)CCCn2c-3nnc2C2(C(F)F)CC(F)(F)C2)c(Cl)cn1 [Compound 120]
≤ 5 nM | > 100 nM | C[C@H]1Cn2c(nnc2C2(C(F)(F)F)CCC2)-c2cc(-c3cc(Nc4ccnn4C)ncc3Cl)cn21 [Compound 50]
≤ 5 nM | > 100 nM | COC1(c2nnc3n2[C@@H](CF)Cn2cc(-c4cc(Nc5ccnn5C)ncc4Cl)cc2-3)CCC1 [Compound 64]
≤ 5 nM | ≤ 100 nM | Cc1cnc(Nc2ccnn2C)nc1-c1cc2n(c1)C[C@H](CF)n1c-2nnc1C(F)(F)n1cc(Cl)cn1 [Compound 156]
≤ 5 nM | > 100 nM | Cc1cnc(NC2CC(F)(F)C2)nc1-c1cc2n(c1)CCCn1c-2nnc1C1(C(F)(F)F)CCC1 [Compound 278]
